Experimental data from PubChem BioAssay AID1963874 (Molecular Pharmacology Branch, DTP, NCI, 2024).

Test system: 253994-281-T-J1-PDC KRAS-mutant spheroids with HUVEC/MSC, viability
Experiment: Anticancer human tumor 253994-281-T-J1-PDC patient-derived colorectal carcinoma cell line growth inhibition [KRAS2]
Details: for viability, T/C: stronger effect = lower value
Method in brief: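 KRAS-mutant tumor cells were grown as spheroids with HUVEC endothelial cells and human MSCs as stroma. Targeted agents were tested alone and with KRAS pathway inhibitors. Doses started at or near clinical Cmax, or 10 microM, descending half-log.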

[1] = curve of first compound, second compound 0.1 µM
[2] = curve of first compound, second compound 0.316 µM
[3] = curve of first compound, second compound 1 µM
[4] = curve of first compound, second compound 3.16 µM
[5] = curve of first compound, second compound 10 µM
[6] = second compound 0.1 µM, first compound 0.00316 µM
[7] = second compound 0.1 µM, first compound 0.01 µM
[8] = second compound 0.1 µM, first compound 0.0316 µM
[9] = second compound 0.1 µM, first compound 0.1 µM
[10] = second compound 0.316 µM, first compound 0.00316 µM
[11] = second compound 0.316 µM, first compound 0.01 µM
[12] = second compound 0.316 µM, first compound 0.0316 µM
[13] = second compound 0.316 µM, first compound 0.1 µM
[14] = second compound 1 µM, first compound 0.00316 µM
[15] = second compound 1 µM, first compound 0.01 µM
[16] = second compound 1 µM, first compound 0.0316 µM
[17] = second compound 1 µM, first compound 0.1 µM
[18] = second compound 3.16 µM, first compound 0.00316 µM
[19] = second compound 3.16 µM, first compound 0.01 µM
[20] = second compound 3.16 µM, first compound 0.0316 µM
[21] = second compound 3.16 µM, first compound 0.1 µM
[22] = second compound 10 µM, first compound 0.00316 µM
[23] = second compound 10 µM, first compound 0.01 µM
[24] = second compound 10 µM, first compound 0.0316 µM
[25] = second compound 10 µM, first compound 0.1 µM
[26] = second compound 0.1 µM, first compound 0.316 µM
[27] = second compound 0.1 µM, first compound 1 µM
[28] = second compound 0.1 µM, first compound 3.16 µM
[29] = second compound 0.316 µM, first compound 0.316 µM
[30] = second compound 0.316 µM, first compound 1 µM
[31] = second compound 0.316 µM, first compound 3.16 µM
[32] = second compound 1 µM, first compound 0.316 µM
[33] = second compound 1 µM, first compound 1 µM
[34] = second compound 1 µM, first compound 3.16 µM
[35] = second compound 3.16 µM, first compound 0.316 µM
[36] = second compound 3.16 µM, first compound 1 µM
[37] = second compound 3.16 µM, first compound 3.16 µM
[38] = second compound 10 µM, first compound 0.316 µM
[39] = second compound 10 µM, first compound 1 µM
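Also: spheroids exposed to agents for seven days before readout.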
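For viability, T/C in this document: percent of DMSO vehicle control viability.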

Compound `Cn1ncnc1[C@H]1c2n[nH]c(=O)c3cc(F)cc(c23)N[C@@H]1c1ccc(F)cc1` + COc1cc2nc(C)nc(NC(C)c3cc(N)cc(C(F)(F)F)c3)c2cc1OC1CCOC1 has an IC50 [1] of over 100 nM, an IC50 [2] of over 100 nM and an IC50 [3] of over 100 nM. It also gave an IC50 [4] of over 100 nM, an IC50 [5] of over 100 nM and a viability, T/C (second compound 0.1 µM, first compound 0.000316 µM) of 92.5%. For the same compound, the viability, T/C (second compound 0.1 µM, first compound 0.001 µM) was 95.7%, the viability, T/C [6] was 79% and the viability, T/C [7] was 90.8%. For the same compound, the viability, T/C [8] was 92.5%, the viability, T/C [9] was 78.8% and the viability, T/C (second compound 0.316 µM, first compound 0.000316 µM) was 80%. The viability, T/C (second compound 0.316 µM, first compound 0.001 µM) was 84.5%, the viability, T/C [10] was 86.1% and the viability, T/C [11] was 80.4%. It also gave a viability, T/C [12] of 91.9%, a viability, T/C [13] of 78.1% and a viability, T/C (second compound 1 µM, first compound 0.000316 µM) of 88.5%. The viability, T/C (second compound 1 µM, first compound 0.001 µM) was 92.2%, the viability, T/C [14] was 86.6% and the viability, T/C [15] was 89.1%. The viability, T/C [16] was 87.1%, the viability, T/C [17] was 85.3% and the viability, T/C (second compound 3.16 µM, first compound 0.000316 µM) was 87.5%. It also gave a viability, T/C (second compound 3.16 µM, first compound 0.001 µM) of 86.5%, a viability, T/C [18] of 91.7% and a viability, T/C [19] of 89.7%. It also gave a viability, T/C [20] of 77.2%, a viability, T/C [21] of 85.5% and a viability, T/C (second compound 10 µM, first compound 0.000316 µM) of 80.9%. The viability, T/C (second compound 10 µM, first compound 0.001 µM) was 84.7%, the viability, T/C [22] was 72.6% and the viability, T/C [23] was 77.7%. The viability, T/C [24] was 83.7% and the viability, T/C [25] was 68.3%.
Work on `CC1COCCN1c1cc(-c2ccnn2C)c2ccnc(-c3ccn[nH]3)c2n1` (configuration not stated) + CC1OCC2(CCN(c3cnc(Sc4ccnc(N)c4Cl)c(N)n3)CC2)C1N yielded an IC50 [1] of 280 nM, an IC50 [2] of 141 nM and an IC50 [3] of 116 nM. For the same compound, the IC50 [4] was 49.7 nM, the IC50 [5] was under 10 nM and the viability, T/C [7] was 87%. The viability, T/C [8] was 81.8%, the viability, T/C [9] was 62.9% and the viability, T/C [26] was 44%. For the same compound, the viability, T/C [27] was 47%, the viability, T/C [28] was 53.1% and the viability, T/C [11] was 87.5%. For the same compound, the viability, T/C [12] was 83%, the viability, T/C [13] was 55.4% and the viability, T/C [29] was 33.3%. The viability, T/C [30] was 36.4%, the viability, T/C [31] was 43.6% and the viability, T/C [15] was 75.2%. It also gave a viability, T/C [16] of 70.4%, a viability, T/C [17] of 52.8% and a viability, T/C [32] of 30.9%. The viability, T/C [33] was 27.6%, the viability, T/C [34] was 38% and the viability, T/C [19] was 59.5%. For the same compound, the viability, T/C [20] was 58.9%, the viability, T/C [21] was 35.8% and the viability, T/C [35] was 24.1%. For the same compound, the viability, T/C [36] was 24.3%, the viability, T/C [37] was 28.2% and the viability, T/C [23] was 43%. It also gave a viability, T/C [24] of 53.4%, a viability, T/C [25] of 25.1% and a viability, T/C [38] of 16.7%. For the same compound, the viability, T/C [39] was 18.9% and the viability, T/C (second compound 10 µM, first compound 3.16 µM) was 23.6%.
With `CCN1CCN(Cc2ccc(Nc3ncc(F)c(-c4cc(F)c5nc(C)n(C(C)C)c5c4)n3)nc2)CC1` + CC1OCC2(CCN(c3cnc(Sc4ccnc(N)c4Cl)c(N)n3)CC2)C1N the IC50 [1] was 715 nM, the IC50 [2] was 422 nM and the IC50 [3] was 186 nM. It also gave an IC50 [4] of 51 nM, an IC50 [5] of 12.2 nM and a viability, T/C [6] of 93.1%. The viability, T/C [7] was 102%, the viability, T/C [8] was 87.6% and the viability, T/C [9] was 79.9%. For the same compound, the viability, T/C [26] was 64.4%, the viability, T/C [27] was 44.2% and the viability, T/C [10] was 96%. The viability, T/C [11] was 90.6%, the viability, T/C [12] was 83.7% and the viability, T/C [13] was 62.4%. For the same compound, the viability, T/C [29] was 62.4%, the viability, T/C [30] was 33% and the viability, T/C [14] was 77.8%. The viability, T/C [15] was 76%, the viability, T/C [16] was 72.9% and the viability, T/C [17] was 57.7%. The viability, T/C [32] was 43.3%, the viability, T/C [33] was 32.2% and the viability, T/C [18] was 68.2%. It also gave a viability, T/C [19] of 76.6%, a viability, T/C [20] of 47.1% and a viability, T/C [21] of 41.9%. For the same compound, the viability, T/C [35] was 39%, the viability, T/C [36] was 22.8% and the viability, T/C [22] was 57%. It also gave a viability, T/C [23] of 55.9%, a viability, T/C [24] of 39.3% and a viability, T/C [25] of 33%. It also gave a viability, T/C [38] of 33% and a viability, T/C [39] of 15%.
In the case of `COC(=O)c1ccc2c(C(=Nc3ccc(N(C)C(=O)CN4CCN(C)CC4)cc3)c3ccccc3)c(O)[nH]c2c1` + C=CC(=O)N1CCN(c2nc(OCC3CCCN3C)nc3c2CCN(c2cccc4cccc(C)c24)C3)CC1CC#N, the IC50 (curve of first compound, second compound 0.0316 µM) is reported as 4960 nM, the IC50 [1] is reported as 4290 nM and the IC50 [2] is reported as 3340 nM. The IC50 [3] was 2310 nM, the IC50 [4] was under 31.6 nM and the viability, T/C (second compound 0.0316 µM, first compound 0.0316 µM) was 101%. The viability, T/C (second compound 0.0316 µM, first compound 0.1 µM) was 112%, the viability, T/C (second compound 0.0316 µM, first compound 0.316 µM) was 98.7% and the viability, T/C (second compound 0.0316 µM, first compound 1 µM) was 96.4%. It also gave a viability, T/C (second compound 0.0316 µM, first compound 3.16 µM) of 76.3%, a viability, T/C (second compound 0.0316 µM, first compound 10 µM) of 9.63% and a viability, T/C [8] of 94.2%. The viability, T/C [9] was 88.3%, the viability, T/C [26] was 86.7% and the viability, T/C [27] was 75.5%. The viability, T/C [28] was 66.9%, the viability, T/C (second compound 0.1 µM, first compound 10 µM) was 13.4% and the viability, T/C [12] was 109%. For the same compound, the viability, T/C [13] was 85.9%, the viability, T/C [29] was 80.4% and the viability, T/C [30] was 72.5%. It also gave a viability, T/C [31] of 59.4%, a viability, T/C (second compound 0.316 µM, first compound 10 µM) of 15.7% and a viability, T/C [16] of 90.7%. For the same compound, the viability, T/C [17] was 85.8%, the viability, T/C [32] was 66.9% and the viability, T/C [33] was 72.7%. The viability, T/C [34] was 44%, the viability, T/C (second compound 1 µM, first compound 10 µM) was 0.21% and the viability, T/C [20] was 5.16%. For the same compound, the viability, T/C [21] was 10.4%, the viability, T/C [35] was 18.4% and the viability, T/C [36] was 9.87%. The viability, T/C [37] was 0.17% and the viability, T/C (second compound 3.16 µM, first compound 10 µM) was 0.22%.
For `CN(C)C/C=C/C(=O)Nc1cc2c(Nc3ccc(F)c(Cl)c3)ncnc2cc1O[C@H]1CCOC1`, the viability, T/C (compound 0.000316 µM) was 96% [middle of 5 runs], the viability, T/C (compound 0.001 µM) was 94.8% [middle of 5 runs] and the viability, T/C (compound 0.00316 µM) was 89.1% [middle of 5 runs]. For the same compound, the viability, T/C (compound 0.01 µM) was 84.3% [middle of 5 runs], the viability, T/C (compound 0.0316 µM) was 74.8% [middle of 5 runs] and the viability, T/C (compound 0.1 µM) was 71.7% [middle of 5 runs]. The IC50 (curve of compound) was over 100 nM.
